Measured values taken from BindingDB's records for doi:10.1021/jm400930e (Ocean University of China, 2013).

Test: Modulation of p-gp (unknown origin) transfected in human MDA435/LCC6MDR cells assessed as reversal of paclitaxel resistance

Question: With `COc1ccc(C2=C(c3cc(OC)c(OC)c(OC)c3)C(=O)N(CC(=O)c3ccc(OCc4ccccc4)c(OC)c3)C2=O)cc1OC` as the molecule, how does the EC50 read?
Answer: 0.11 µM

Question: For `COc1ccc(C2=C(c3ccc(OC)c(OC)c3)C(=O)N(CC(=O)c3ccc(OCc4ccccc4)c(OC)c3)C2=O)cc1OC`, which EC50 is on record?
Answer: 0.094 µM
